{"source": "patent US20120015938A1", "about": "“1,4-BENZODIAZEPIN-2-ON DERIVATIVES” (MSD K.K., priority 2009, published 2012)", "molecular_target": "T1, Human DGAT1 (Homo sapiens, UniProt O75907)", "T1 construct": "made in house; host or cells: Pichia pastoris (printed 'Pichia pastris'), vector pPICZA; membrane fraction", "T1 sequence (O75907 1-488)": "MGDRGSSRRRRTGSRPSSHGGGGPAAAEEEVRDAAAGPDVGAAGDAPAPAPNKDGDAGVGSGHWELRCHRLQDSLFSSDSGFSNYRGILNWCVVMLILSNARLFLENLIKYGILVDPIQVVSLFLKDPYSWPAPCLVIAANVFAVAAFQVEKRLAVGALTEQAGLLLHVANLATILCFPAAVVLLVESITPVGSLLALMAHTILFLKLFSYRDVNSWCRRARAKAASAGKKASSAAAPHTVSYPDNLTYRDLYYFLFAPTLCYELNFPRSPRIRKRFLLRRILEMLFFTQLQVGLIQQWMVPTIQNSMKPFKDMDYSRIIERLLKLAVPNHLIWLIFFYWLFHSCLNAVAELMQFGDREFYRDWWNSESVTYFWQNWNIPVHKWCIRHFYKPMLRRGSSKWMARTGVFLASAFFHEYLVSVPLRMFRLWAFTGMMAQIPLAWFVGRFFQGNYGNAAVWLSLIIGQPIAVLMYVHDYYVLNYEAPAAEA", "test": "DGAT1 Inhibitory Activity Test", "type": "biochemical", "settings": "DGAT1-expressed yeast membrane fraction, [14C]-oleoyl-CoA, room temperature 30 minutes", "experimental": "Cloning of Human DGAT1 Gene and Expression in Yeast\nHuman DGAT1 genes were amplified by PCR using primers described below from human cDNA library (Clontech).\nThe amplified human DGAT1 genes were introduced into a yeast expression vector pPICZA (Invitrogen). The resultant expression plasmid was introduced into an yeast (Pichia pastris) by electroporation to produce a recombinant yeast. The recombination yeast was cultured in the presence of 0.5% methanol for 72 hours, and the cells were crushed using glass beads in 10 mM Tris pH 7.5, 250 mM sucrose and 1 mM EDTA, followed by adjusting the membrane fraction by centrifugation to use the adjusted membrane fraction as an enzyme source.\nTo the reaction liquid having the following composition: 100 mM Tris pH 7.5, 100 mM MgCl2, 100 mM sucrose, 40 μM dioelin, 15 μM [^14C]-oleoyl-CoA, 0.25 μg of test substance, DGAT1-expressed yeast membrane fraction, was added, and the mixture having a volume of 100 μl was incubated at room temperature for 30 minutes. To the reaction liquid, 100 μl of 2-propanol/heptan/H2O (80:20:2) was added, the mixture was stirred well, followed by adding 200 μl of heptane and further stirring the mixture. After centrifugation, the heptane layer was collected, ethanol/0.1N NaOH/H2O (50:5:45) was added, the mixture was thus stirred, followed by re-centrifuging the mixture and collecting the heptane layer. After exsiccation of the resultant heptane layer, 100 μl of Microscint 0 (PerkinElmer) was added, and the radioactivity was measured with a liquid scintillation counter. The inhibitory activity was calculated from the following formula:\nInhibition rate=100−(radioactivity in case of addition of test compound−background)/(radioactivity in case of addition of no test compound−background)×100 wherein the background means the radioactivity in case of addition of no membrane fraction.", "data": [{"smiles": "CN1C(=O)C(NC(=O)C(C)(C)NC(=O)c2ccc(F)cc2)N=C(Cc2ccc(OC(F)(F)F)cc2)c2cc(F)ccc21", "note": "(single isomer, unassigned) [Example 1 Enantiomer A, 4-fluoro-N-[2-({7-fluoro-1-methyl-2-oxo-5-[4-(trifluoromethoxy)benzyl]-2,3-dihydro-1H-1,4-benzodiazepin-3-yl}amino)-1,1-dimethyl-2-oxoethyl]benzamide]", "values": [{"measurement": "IC50", "value": 483, "unit": "nM"}]}, {"smiles": "CN1C(=O)C(NC(=O)C(C)(C)NC(=O)c2ccc(F)cc2)N=C(Cc2ccc(OC(F)(F)F)cc2)c2cc(F)ccc21", "note": "(single isomer, unassigned) [Example 1 Enantiomer B, 4-fluoro-N-[2-({7-fluoro-1-methyl-2-oxo-5-[4-(trifluoromethoxy)benzyl]-2,3-dihydro-1H-1,4-benzodiazepin-3-yl}amino)-1,1-dimethyl-2-oxoethyl]benzamide]", "values": [{"measurement": "IC50", "value": 133, "unit": "nM"}]}, {"smiles": "CN1C(=O)C(NC(=O)C(C)(C)NC(=O)c2ccccc2)N=C(Cc2ccc(OC(F)(F)F)cc2)c2cc(F)ccc21", "note": "(single isomer, unassigned) [Example 2 Enantiomer A, N-[2-({7-fluoro-1-methyl-2-oxo-5-[4-(trifluoromethoxy)benzyl]-2,3-dihydro-1H-1,4-benzodiazepin 3-yl}amino)-1,1-dimethyl-2-oxoethyl]benzamide]", "values": [{"measurement": "IC50", "value": 569, "unit": "nM"}]}, {"smiles": "CN1C(=O)C(NC(=O)C(C)(C)NC(=O)c2ccccc2)N=C(Cc2ccc(OC(F)(F)F)cc2)c2cc(F)ccc21", "note": "(single isomer, unassigned) [Example 2 Enantiomer B, N-[2-({7-fluoro-1-methyl-2-oxo-5-[4-(trifluoromethoxy)benzyl]-2,3-dihydro-1H-1,4-benzodiazepin 3-yl}amino)-1,1-dimethyl-2-oxoethyl]benzamide]", "values": [{"measurement": "IC50", "value": 164, "unit": "nM"}]}, {"smiles": "CN1C(=O)C(NC(=O)C(C)(C)NC(=O)c2ccc(F)cc2)N=C(Cc2ccc(OC(F)(F)F)cc2)c2ccccc21", "note": "(single isomer, unassigned) [Example 3 Enantiomer A, N-[1,1-dimethyl-2-({1-methyl-2-oxo-5-[4-(trifluoromethoxy)benzyl]-2,3-dihydro-1H-1,4-benzodiazepin-3-yl}amino)-2-oxoethyl]-4-fluorobenzamide]", "values": [{"measurement": "IC50", "value": 181, "unit": "nM"}]}, {"smiles": "CN1C(=O)C(NC(=O)C(C)(C)NC(=O)c2ccc(F)cc2)N=C(Cc2ccc(OC(F)(F)F)cc2)c2ccccc21", "note": "(single isomer, unassigned) [Example 3 Enantiomer B, N-[1,1-dimethyl-2-({1-methyl-2-oxo-5-[4-(trifluoromethoxy)benzyl]-2,3-dihydro-1H-1,4-benzodiazepin-3-yl}amino)-2-oxoethyl]-4-fluorobenzamide]", "values": [{"measurement": "IC50", "value": 125, "unit": "nM"}]}, {"smiles": "CN1C(=O)C(NC(=O)C(C)(C)NC(=O)c2ccccc2)N=C(Cc2ccc(OC(F)(F)F)cc2)c2ccccc21", "note": "(single isomer, unassigned) [Example 4 Enantiomer A, N-[1,1-dimethyl-2-({1-methyl-2-oxo-5-[4-(trifluoromethoxy)benzyl]-2,3-dihydro-1H-1,4-benzodiazepin-3-yl}amino)-2-oxoethyl]benzamide]", "values": [{"measurement": "IC50", "value": 308, "unit": "nM"}]}, {"smiles": "CN1C(=O)C(NC(=O)C(C)(C)NC(=O)c2ccccc2)N=C(Cc2ccc(OC(F)(F)F)cc2)c2ccccc21", "note": "(single isomer, unassigned) [Example 4 Enantiomer B, N-[1,1-dimethyl-2-({1-methyl-2-oxo-5-[4-(trifluoromethoxy)benzyl]-2,3-dihydro-1H-1,4-benzodiazepin-3-yl}amino)-2-oxoethyl]benzamide]", "values": [{"measurement": "IC50", "value": 127, "unit": "nM"}]}]}
